From the supplement of paper PMC10307832

Key:
Assay in all cases: relative viability (nuclei count vs DMSO), 5 days (fraction); higher = more cells survive
[1] = compound: C1CNCCC1C2=CC(=NN2)C3=CC=NC=C3 + CS(=O)(=O)CCNCc1ccc(-c2ccc3ncnc(Nc4ccc(OCc5cccc(F)c5)c(Cl)c4)c3c2)o1 [Lapatinib] (partner 2 µM)
In short: (§1)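 Values are medians from duplicate plates. Each reflects relative viability, defined as the nuclei count of treated wells over that of vehicle wells. Lung cancer cell lines in 1536-well plates were pin-tool dosed one day after seeding with one drug alone or with a fixed anchor-drug dose plus five library-drug doses (not always all listed) in √10 steps, then fixed, stained and imaged at 4× after 5 days.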

[2] = compound: C1CNCCC1C2=CC(=NN2)C3=CC=NC=C3 + CCNC(=O)c1noc(-c2cc(C(C)C)c(O)cc2O)c1-c1ccc(CN2CCOCC2)cc1 [Luminespib] (partner 0.01 µM)
In short: as §1

Tanzisertib + OSI-027 = compound: O[C@H]1CC[C@H](Nc2ncc3nc(Nc4c(F)cc(F)cc4F)n([C@H]4CCOC4)c3n2)CC1 [Tanzisertib] + COc1cccc2cc(-c3nc([C@H]4CC[C@H](C(=O)O)CC4)n4ncnc(N)c34)[nH]c12 [OSI-027] (partner 0.5 µM)
In short: as §1

[3] = compound: C[C@@H](N)c1ccc(C(=O)Nc2ccnc3[nH]ccc23)cc1 + CC1(C)CCC(c2ccc(Cl)cc2)=C(CN2CCN(c3ccc(C(=O)NS(=O)(=O)c4ccc(N[C@H](CCN5CCOCC5)CSc5ccccc5)c(S(=O)(=O)C(F)(F)F)c4)cc3)CC2)C1 [Navitoclax] (partner 0.5 µM)
In short: as §1

| Cell Line | relative viability ([1]; first compound 0.08 µM) | relative viability ([1]; first compound 0.8 µM) | relative viability ([1]; first compound 2.53 µM) | relative viability ([1]; first compound 8 µM) | relative viability ([2]; first compound 0.08 µM) | relative viability ([2]; first compound 0.8 µM) | relative viability ([2]; first compound 2.53 µM) | relative viability ([2]; first compound 8 µM) | relative viability (Tanzisertib + OSI-027; first compound 0.08 µM) | relative viability (Tanzisertib + OSI-027; first compound 0.253 µM) | relative viability (Tanzisertib + OSI-027; first compound 0.8 µM) | relative viability (Tanzisertib + OSI-027; first compound 2.53 µM) | relative viability (Tanzisertib + OSI-027; first compound 8 µM) | relative viability ([3]; first compound 0.04 µM) | relative viability ([3]; first compound 0.1265 µM) | relative viability ([3]; first compound 0.4 µM) | relative viability ([3]; first compound 4 µM) | relative viability ([3]; first compound 1.265 µM) |
| --- | --- | --- | --- | --- | --- | --- | --- | --- | --- | --- | --- | --- | --- | --- | --- | --- | --- | --- |
| ABC-1 | 1.14 | 1.25 | 1.09 | 1.38 | 0.517 | 0.69 | 1.02 | 0.663 | 0.471 | 0.469 | 0.469 | 0.511 | 0.461 | – | – | – | – | – |
| HCC-366 | 0.864 | 1.13 | 1.04 | 1.04 | – | – | – | – | 0.968 | 0.888 | 0.942 | 0.977 | 0.051 | 1.04 | 1.15 | 1.16 | 0.923 | – |
| NCI-H1563 | 0.747 | 0.885 | 0.896 | 1.03 | 0.536 | 0.497 | 0.518 | 0.494 | 0.789 | 0.731 | 0.722 | 0.731 | 0.704 | – | – | – | – | – |
| NCI-H1648 | – | – | – | – | – | – | – | – | 0.275 | 0.245 | 0.239 | 0.319 | 0.223 | – | – | – | – | – |
| NCI-H1299 | 0.96 | 0.948 | 1 | 0.891 | – | – | – | – | – | – | – | – | – | 1.06 | 0.988 | 0.983 | 0.932 | 0.973 |
| A549 | 0.863 | 1.02 | 1.14 | 0.952 | – | – | – | – | – | – | – | – | – | 1.23 | 1.31 | 1.18 | 0.714 | 1.21 |
| NCI-H1623 | – | – | – | – | 0.401 | 0.5 | 0.564 | 0.551 | 0.495 | 0.448 | 0.453 | 0.437 | 0.432 | – | – | – | – | – |
| NCI-H1703 | 1.03 | 1.51 | 1.12 | 1.03 | – | – | – | – | – | – | – | – | – | 1.28 | 1.11 | 1.06 | 0.616 | – |
| HCC-78 | 0.723 | – | 0.871 | 0.86 | – | – | – | – | 0.344 | 0.376 | 0.396 | 0.382 | 0.316 | 1.08 | 0.79 | 1.2 | 0.782 | 1.11 |
| NCI-H661 | 0.466 | 0.475 | 0.479 | 0.55 | 0.93 | 0.915 | 0.934 | 0.848 | 0.771 | 0.741 | 0.615 | 0.704 | 0.655 | – | – | – | – | – |
| NCI-H522 | – | – | – | – | 1.06 | 1.4 | 0.948 | 1.21 | 0.802 | 0.831 | 0.748 | 0.696 | 0.626 | – | – | – | – | – |
| Calu-6 | 0.987 | 1.17 | 1.12 | 1.05 | – | – | – | – | – | – | – | – | – | 0.849 | 1.02 | 0.855 | 0.678 | 0.836 |
| ChaGo-K-1 | – | – | – | – | 0.512 | 0.555 | 0.709 | 0.568 | 0.673 | 0.615 | 0.583 | 0.51 | 0.472 | 1.07 | 1.01 | 1.19 | 0.891 | – |
| LCLC-103H | – | – | – | – | 1.06 | 0.909 | 0.982 | 0.961 | 0.458 | 0.44 | 0.438 | 0.427 | 0.509 | – | – | – | – | – |
| NCI-H441 | – | – | – | – | 0.332 | 0.312 | 0.309 | 0.444 | 0.855 | 0.505 | 0.467 | 0.444 | 0.403 | 0.571 | 0.546 | 0.477 | 0.571 | 0.624 |
